This note sets out measurements from patent US11613517B2, “Amide prodrugs of small molecule nuclear receptor modulators” (OREGON HEALTH & SCIENCE UNIVERSITY, priority 2018, dated 2023).

This data set deals with T1, FAAH (Mus musculus, UniProt O08914).
T1 construct: from tissue; host or cells: live wild type male C57Bl/6 mice (in vivo; brain and serum analysed)
T1 sequence (O08914 1-579): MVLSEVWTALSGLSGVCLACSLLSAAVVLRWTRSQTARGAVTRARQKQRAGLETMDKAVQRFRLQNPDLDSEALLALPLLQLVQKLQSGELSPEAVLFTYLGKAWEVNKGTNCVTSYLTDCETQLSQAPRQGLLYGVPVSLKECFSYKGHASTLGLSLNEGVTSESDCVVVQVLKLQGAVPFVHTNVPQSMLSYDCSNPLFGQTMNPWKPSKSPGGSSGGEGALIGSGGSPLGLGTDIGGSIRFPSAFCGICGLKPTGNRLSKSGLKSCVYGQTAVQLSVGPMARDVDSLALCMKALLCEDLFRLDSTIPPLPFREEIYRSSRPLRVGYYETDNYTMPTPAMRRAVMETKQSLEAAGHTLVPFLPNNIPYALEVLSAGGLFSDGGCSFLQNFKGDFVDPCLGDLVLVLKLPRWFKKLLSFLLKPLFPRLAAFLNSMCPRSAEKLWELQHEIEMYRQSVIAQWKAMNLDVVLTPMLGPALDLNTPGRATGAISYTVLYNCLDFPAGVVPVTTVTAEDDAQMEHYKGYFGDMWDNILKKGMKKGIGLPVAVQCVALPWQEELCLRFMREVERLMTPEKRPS
Description: FAAH Inhibition Study: prodrug alone or after FAAH inhibitor PF-3845 in mice. The note with it: FIG. 12, in vivo. As for the experimental part: Two cohorts of three mice were injected once intraperitoneally (i.p.) with prodrug at 9.14 μmol/kg. One cohort was injected 1 h prior to prodrug administration with a 1 mg/kg dose of FAAH inhibitor PF-3845. Euthanasia was performed on each cohort 1 h after injection with the prodrug and the tissues and blood were harvested. Tissues were immediately frozen and blood was kept on ice for a minimum of 30 min and then spun down at 7500×g for 15 min. Serum ([…]) was collected and was stored with tissues at −80° C. until samples were processed. Samples were processed as described above.
All parent drugs and d6-sobetirome internal standard were analyzed using a QTRAP 4000 hybrid/triple quadrupole linear ion trap mass spectrometer (Applied biosystems) with electrospray ionization (ESI) in negative mode. The mass spectrometer was interfaced to a Shimadzu (Columbia, Md.) SIL-20AC XR auto-sampler followed by 2 LC-20AD XR LC pumps and analysis on an Applied Biosystems/SCIEX QTRAP 4000 instrument (Foster City, Calif.). […] Data were acquired using SCIEX Analyst 1.6.2 software (Framingham, Mass., USA) and analyzed using Multiquant 3.0.2
Statistical analyses were performed using the two-tailed Student t test comparing individual groups with the appropriate vehicle group or as noted. […] AUC values were calculated and data was plotted and analyzed using GraphPad Prism 7. […]

Take `CNC(=O)COc1cc(C)c(Cc2cc(C#Cc3ccc([N+](=O)[O-])cc3)c(O)c(C(C)C)c2)c(C)c1` [NRMA-2, 2-(4-(4-hydroxy-3-isopropyl-5-((4-nitrophenyl)ethynyl)benzyl)-3,5-dimethylphenoxy)-N-methylacetamide]: the “In vivo validation as substrate for the FAAH enzyme” value is “substrate for the FAAH enzyme”.
